{"source": "patent US20150301067A1", "about": "“METHODS AND ASSAYS FOR FACIOSCAPULOHUMERAL MUSCULAR DYSTROPHY” (UNIVERSITY OF WASHINGTON THROUGH ITS CENTER FOR …, priority 2012, published 2015)", "key": {"FSHD-myotubes": {"test_system": "FSHD-myotubes", "assay": "DUX4-mediated myotube death / apoptosis in FSHD myotubes differentiated in KOSR medium", "assay_type": "cell-based, human", "details": "for DUX4-mediated myotube death: FSHD-myotubes, KOSR differentiation medium, data not shown", "protocol": "Primary human myoblasts were obtained by written informed consent through the Fields Center at the University of Rochester cell bank. […] Pharmacological inhibitor of glycogen synthase kinase-3-β (GSKi) was used at a final concentration of 3 μM (CHIR99021, STEMGENT; Cambridge. Mass.).\n(§1) Immunofluorescent staining for DUX4 was performed using the E5-5 rabbit monoclonal antibody to the C-terminus of DUX4 ^34. Staining was performed by fixing the cells in 4% paraformaldehyde for 10 mins at room temperature, washing with PBS, permeablizing with 0.5% TritonX-100 in PBS for 10 mins at room temperature. The cells were then washed again in PBS and incubated overnight in a 1:10 dilution of the E5-5 antibody. The following day, the cells were washed 3×5 min in PBS and stained using a fluorescent conjugated secondary goat-anti rabbit secondary antibody for 1-2 hr at room temperature. Following a final wash, the cells were counterstained with 4′,6-Diamidino-2-phenylindole dihydrochloride (DAPI, SIGMA ALDRICH), and visualized by microscopy using UV illumination.\nTo quantify DUX4 expression, the Nikon Ti Eclipse microscope was programmed using the Nikon Elements software to take 36 pictures at random on a 35 mm culture dish, or to scan an entire well of a 384 well dish. These images were then manually inspected and DUX4 (+) nuclei counted. To determine the myotube index, the Nikon Elements software was used to create binary masks of the DAPI and MHC channels for each image. This technique created a border around each nucleus or cluster of nuclei which could then be used to measure the sum pixel intensity from the DAPI channel. The average sum pixel intensity for single nuclei from each image was determined, and used to calculate the number of nuclei within clusters. By intersecting the binary images from the DAPI and MHC channels the inventors could exclude the nuclei that were outside of MHC(+) myotubes, and create a myotube fusion index. The myotube fusion index was compared to manual counts to confirm accuracy of the calculations."}, "DUX4 [1]": {"test_system": "DUX4", "assay": "Immunofluorescent count of DUX4(+) nuclei in MHC(+) myotubes", "assay_type": "cell-based, human", "details": "for reduction in the number of nuclei expressing DUX4: FSHD1(2349) myotubes, KOSR medium", "protocol": "(§2) Primary human myoblasts were obtained by written informed consent through the Fields Center at the University of Rochester cell bank. Myoblasts were grown in F10 medium (INVITROGEN, Carlsbad, Calif.) supplemented with 20% fetal bovine serum (FBS; THERMO SCIENTIFIC (HYCLONE), and 50 U/50 μg penicillin/streptomycin (Pen-Strep; INVITROGEN), 10 ng bFGF (INVITROGEN), and 1 μM dexamethasone (SIGMA ALDRICH; St. Louis, […].)^9. Differentiation was induced using F10 medium supplemented with 1% equine serum and ITS supplement (insulin 0.1%, 0.000067% sodium selenite, 0.055% transferrin; INVITROGEN), or in DMEM:F12 (1:1) with 3.151 g/L glucose, 10 mM non-essential amino acids (INVITROGEN), […] sodium pyruvate, 20% knockout serum replacer (INVITROGEN, #10828010). Pharmacological inhibitor of glycogen synthase kinase-3-β (GSKi) was used at a final concentration of 3 μM (CHIR99021, STEMGENT; Cambridge. Mass.). Recombinant human Wnt3A was used at a concentration of 250 ng/mL, and confirmed to be bioactive prior to use in the assays described herein.\nas §1, with “Following a final wash, the cells were counterstained with 4′,6-Diamidino-2-phenylindole dihydrochloride (DAPI, SIGMA ALDRICH), and visualized by microscopy using UV illumination.” left out\nTo quantify DUX4 expression, the Nikon Ti Eclipse microscope was programmed using the Nikon Elements software to take 36 pictures at random on a 35 mm culture dish, or to scan an entire well of a 384 well dish. These images were then manually inspected and DUX4 (+) nuclei counted. […] The average sum pixel intensity for single nuclei from each image was determined, and used to calculate the number of nuclei within clusters. […]"}, "DUX4 promoter": {"test_system": "DUX4 promoter", "assay": "D4Z4(FFL) DUX4 promoter luciferase reporter in C2C12 cells", "assay_type": "cell-based", "details": "3 μM GSKi, vs DMSO", "protocol": "The D4Z4 regulatory region controlling the expression of DUX4^31 was subcloned upstream of the open reading from of the pGL3-basic vector (pGL3) to make D4Z4(FFL). The D4Z4(FFL) was excised using XbaI/SpeI restriction enzymes and ligated into the SpeI site of a 3rd generation lentiviral vector multiple cloning site (pRRL-sinc-PPT-MCS; Gift from Dr. Grant Trobridge).\nCells transduced with D4Z4(FFL) lentivirus vector were seeded in a 96 well dish. Thirty minutes prior to the assay, Hoescht Dye was added to the cell culture medium to a final concentration of 5 μm, and 30 min later the plate was analyzed for DNA content by measuring fluorescence at 355 nm using a multiwell plate reader (ENVISION; PERKIN-ELMER). An equal volume of STEADY-GLO (PROMEGA) was added to each well, and transferred to an opaque dish. Luminescence was read using the plate reader, and normalized to DNA content for each well."}, "DUX4 [2]": {"test_system": "DUX4", "assay": "RT PCR of DUX4 transcripts in primary human cells", "assay_type": "cell-based", "details": "normal(NR201) and FSHD2(2305) primary human cells, 3 μM GSKi", "protocol": "as §2\nRNA was isolated by TRIZOL extraction according to the manufacturers protocol (INVITROGEN), except that the final ethanol precipitate was resuspended 1×DNase I buffer and 5 U DNase I for 15 mins and the RNA was extracted with phenol/chloroform and precipitated with ethanol using RNase-free glycogen (NEW ENGLAND BIOLABS) as a carrier. […]"}, "FSHD myotubes": {"test_system": "FSHD myotubes", "assay": "Cell viability assay (ATP content normalized to DNA content)", "assay_type": "cell-based, human", "details": "cultured in the absence or presence of GSKi", "protocol": "Hoescht Dye was added to cells in culture for 30 minutes at a final concentration of 5 μM. Following detachment with trypsin a 50 μL aliquot of the cells was assayed for fluorescence at 355 nm to give an absorbance value for DNA content. An equal volume of CELL TITRE GLO (PROMEGA) was then added to the aliquot, and luminescence was measured. The luminescent value was normalized to the absorbance value for DNA content."}}, "note": "“Also recorded” adds a separate entry of the source."}
{"compound": "Cc1c[nH]c(-c2cnc(NCCNc3ccc(C#N)cn3)nc2-c2ccc(Cl)cc2Cl)n1", "note": "[GSKi]", "values": [{"measurement": "myotube apoptosis", "setting": "FSHD-myotubes; FSHD myotubes, GSKi treatment alone (3 μM)", "value": "did not prevent myotube apoptosis; also recorded: insufficient to prevent apoptosis"}, {"measurement": "reduction in the number of DUX4(+) nuclei in myotubes", "setting": "DUX4 [1]; FSHD myoblasts differentiated in the presence of 3 μM GSKi, three cell lines", "value": "greater than 50%"}, {"measurement": "upregulation of DUX4 expression during myotube formation (luciferase activity normalized to DNA content)", "setting": "DUX4 promoter", "value": "reduced the characteristic upregulation of DUX4 expression"}, {"measurement": "upregulation of DUX4 expression during myotube formation (DUX4 transcripts)", "setting": "DUX4 [2]", "value": "reduced the characteristic upregulation of DUX4 expression"}, {"measurement": "ATP content of myoblasts or myotubes", "setting": "FSHD myotubes", "value": "No difference"}]}
{"compound": "O=C(NCc1ccccc1)c1csc(Nc2ccncn2)n1", "note": "[Thiazovivin]", "values": [{"measurement": "DUX4-mediated myotube death", "setting": "FSHD-myotubes", "value": "also prevented DUX4-mediated myotube death"}, {"measurement": "reduction in the number of nuclei expressing DUX4", "setting": "DUX4 [1]; 0.5 μM Thiazovivin", "value": 10, "unit": "fold"}]}
{"compound": "C[C@@H](N)[C@H]1CC[C@H](C(=O)Nc2ccncc2)CC1", "note": "[Y-27632]", "values": [{"measurement": "DUX4-mediated myotube death", "setting": "FSHD-myotubes", "value": "also prevented DUX4-mediated myotube death"}, {"measurement": "reduction in the number of nuclei expressing DUX4", "setting": "DUX4 [1]; 10 μM Y-27632", "value": 10, "unit": "fold"}]}
{"compound": "O=C1O[C@H]([C@@H](O)CO)C(O)=C1O", "note": "[ascorbic acid]", "values": [{"measurement": "DUX4-mediated myotube death", "setting": "FSHD-myotubes", "value": "observed DUX4-dependent myotube apoptosis despite treatments"}]}
{"compound": "Cc1ccc(C(=O)Cn2c3c(sc2=N)CCCC3)cc1", "note": "[pifithrin-α]", "values": [{"measurement": "DUX4-mediated myotube death", "setting": "FSHD-myotubes", "value": "efficiently prevented DUX4-mediated myotube death"}]}
{"compound": "OCCS", "note": "[β-mercapto-ethanol]", "values": [{"measurement": "DUX4-mediated myotube death", "setting": "FSHD-myotubes", "value": "observed DUX4-dependent myotube apoptosis despite treatments"}]}
{"compound": "Arsenic trioxide", "values": [{"measurement": "DUX4-mediated myotube death", "setting": "FSHD-myotubes", "value": "efficiently prevented DUX4-mediated myotube death"}]}
